Test [1] concerns the target T1, CK2α (Homo sapiens, UniProt P68400).
T1 construct: endogenous in cells; host or cells: HEK293
The test can be described thus: Western blot of kinase expression in HEK293 cells. Type of test: cell-based. The conditions noted are these: CaNDY 2 μM, 4 days. On the procedure:
To check selectivity of CaNDY for other kinases, we first examined protein expression of several kinases in HEK293 cells treated with CaNDY (2 μM) for 4 days. […] Third, protein expression of these kinases targeted by CaNDY (DYRK1A, DYRK1B, CLK1, and Haspin) was reassessed by Western blot analysis as performed in Fig. 7b.
Western blot analysis was performed using the antibodies described above. In brief, total cell lysates were separated by SDS-PAGE (5–20% gels; ATTO, Tokyo, Japan) under reducing conditions and then transferred to a PVDF membrane (PALL, SP, Brazil). Antibody reactions were performed with Can Get Signal® Immunoreaction Enhancer Solution (Toyobo). Peroxidase activities on the membrane were visualized with ECL Western Blotting Detection Reagents (GE Healthcare) or ImmunoStar® LD (Wako Pure Chemical Industries, Osaka, Japan), and a ChemiDoc^TM MP Imaging System (Bio-Rad, Hercules, CA, USA).

Test [2] addresses T2, MLK1_Cascade (Homo sapiens, UniProt P80192).
T2 construct: purchased Carna Biosciences
As to the kind of experiment: Kinase panel, CaNDY 1 µM. In kind it is biochemical. The conditions noted are these: CaNDY 1 µM relative to DMSO.

Test [3] concerns the target T3, CLK2 (Homo sapiens, UniProt P49760).
T3 construct: purchased Carna Biosciences
The test can be described thus: Kinase panel, CaNDY 1 µM. In kind it is biochemical.

For test [4], the target named is T4, PDHK4 (Homo sapiens, UniProt Q16654).
T4 construct: purchased Carna Biosciences
The test can be described thus: Kinase panel, CaNDY 1 µM. Type of test: biochemical. The conditions noted are these: CaNDY 1 µM relative to DMSO.

The target in test [5] is T5, PKCγ (Homo sapiens, UniProt P05129).
T5 construct: purchased Carna Biosciences
The test can be described thus: Kinase panel, CaNDY 1 µM. Type of test: biochemical. The conditions noted are these: CaNDY 1 µM relative to DMSO.

Test [6] has as its target T6, FGFR3(K650E) (Homo sapiens, UniProt P22607, K650E).
T6 construct: purchased Carna Biosciences
The test can be described thus: Kinase panel, CaNDY 1 µM. In kind it is biochemical. As to conditions: CaNDY 1 µM relative to DMSO.

Test [7] deals with T7, PIK3CA/PIK3R1 (Homo sapiens, UniProt P42336).
T7 construct: purchased Carna Biosciences
As to the kind of experiment: Kinase panel, CaNDY 1 µM. Type of test: biochemical. The conditions noted are these: CaNDY 1 µM relative to DMSO.

The target of test [8] is T8, HER2 (Homo sapiens, UniProt P04626).
T8 construct: purchased Carna Biosciences
The test can be described thus: Kinase panel, CaNDY 1 µM. In kind it is biochemical. As to conditions: CaNDY 1 µM relative to DMSO.

Test [9] concerns the target T9, RET (Homo sapiens, UniProt P07949).
T9 construct: purchased Carna Biosciences
As to the kind of experiment: Kinase panel, CaNDY 1 µM. Type of test: biochemical. The conditions noted are these: CaNDY 1 µM relative to DMSO.

Test [10] deals with T10, MAP3K4_Cascade (Homo sapiens, UniProt Q9Y6R4).
T10 construct: purchased Carna Biosciences
As to the kind of experiment: Kinase panel, CaNDY 1 µM. Type of test: biochemical. The conditions noted are these: CaNDY 1 µM relative to DMSO.

Test [11] addresses T11, HGK (Homo sapiens, UniProt O95819).
T11 construct: purchased Carna Biosciences
The test can be described thus: Kinase panel, CaNDY 1 µM. Type of test: biochemical. As to conditions: CaNDY 1 µM relative to DMSO.

The target in test [12] is T12, MAP2K6_Cascade (Homo sapiens, UniProt P52564).
T12 construct: purchased Carna Biosciences
As to the kind of experiment: Kinase panel, CaNDY 1 µM. Type of test: biochemical. The conditions noted are these: CaNDY 1 µM relative to DMSO.

The target of test [13] is T13, PAK1 (Homo sapiens, UniProt Q13153).
T13 construct: purchased Carna Biosciences
The test can be described thus: Kinase panel, CaNDY 1 µM. Type of test: biochemical. The conditions noted are these: CaNDY 1 µM relative to DMSO.

The target in test [14] is T14, LYNb (Homo sapiens, UniProt P07948).
T14 construct: purchased Carna Biosciences
The test can be described thus: Kinase panel, CaNDY 1 µM. Type of test: biochemical. As to conditions: CaNDY 1 µM relative to DMSO.

In test [15] the target is T15, MNK2 (Homo sapiens, UniProt Q9HBH9).
T15 construct: purchased Carna Biosciences
As to the kind of experiment: Kinase panel, CaNDY 1 µM. In kind it is biochemical. The conditions noted are these: CaNDY 1 µM relative to DMSO.

Test [16] deals with T16, CK2α2/β (Homo sapiens, UniProt P19784).
T16 construct: purchased Carna Biosciences
The test can be described thus: Kinase panel, CaNDY 1 µM. Type of test: biochemical. As to conditions: CaNDY 1 µM relative to DMSO.

The target of test [17] is T17, JAK1 (Homo sapiens, UniProt P23458).
T17 construct: purchased Carna Biosciences
The test can be described thus: Kinase panel, CaNDY 1 µM. In kind it is biochemical. As to conditions: CaNDY 1 µM relative to DMSO.

Test [18] has as its target T18, MAP2K5_Cascade (Homo sapiens, UniProt Q13163).
T18 construct: purchased Carna Biosciences
As to the kind of experiment: Kinase panel, CaNDY 1 µM. In kind it is biochemical. The conditions noted are these: CaNDY 1 µM relative to DMSO.

Test [19] deals with T19, ROS (Homo sapiens, UniProt P08922).
T19 construct: purchased Carna Biosciences
The test can be described thus: Kinase panel, CaNDY 1 µM. The conditions noted are these: CaNDY 1 µM relative to DMSO. Type of test: biochemical.

In test [20] the target is T20, GST-tagged human DYRK1A (Homo sapiens, UniProt Q13627).
T20 construct: purchased Life Technologies PV3785
As to the kind of experiment: ATP kinetics assay. In kind it is biochemical. On the procedure: The kinase reaction for ATP kinetics was performed in a reaction mixture containing serially diluted inhibitors, 10 mM MOPS-KOH (pH 7.0), 10 mM magnesium acetate, 200 μM EDTA, 2.5–40 μM ATP, 0.125–0.4 μCi [γ-^32P]ATP, 5 μM DYRKtide (Anaspec, CA, USA), and 1 nM of GST-tagged human DYRK1A (Cat# PV3785, Life Technologies), for a final volume of 25 μl. The final concentration of DMSO was adjusted to 0.1%, regardless of the inhibitor concentration. The reaction mixture was incubated at 30 °C for 15 min, and phosphoric acid (final 5%) was then added to stop the reaction. 25 μL of the reaction mixture was dispensed onto P81, a phosphocellulose membrane (Whatman, GE Healthcare), and washed four times in 5% phosphoric acid. Cherenkov light from the incorporated ^32P was measured using a liquid scintillation counter. The kinase assay conditions, including the incubation period and the concentration of the kinases and substrates, were optimized to maintain linearity during the incubation. The net radioactivity was determined by subtracting the background count from the reaction mixture without kinase. The amount of incorporated ^32P was calculated from the standard line. The Km and Ki values were calculated with Prism6 software (GraphPad Software, San Diego, CA, USA) using the competitive inhibition model.

Test [21] relates to CDC37-nanoKAZ. As to the kind of experiment: Luminescence activity of CDC37-nanoKAZ in total cell lysates. Type of test: cell-based. As to conditions: counter-test, same concentrations as interaction assay. The procedure:
The luminescence activity of the cell lysates was determined using a Centro LB 960 Microplate Luminometer (Berthold Technologies, Bad Wildbad, Germany). A reaction mixture containing bis-coelenterazine (final concentration of 0.1–1 μg/100 μL) in PBS containing 0.02% Tween20 and 20 mM EDTA was injected. The luminescence intensity was recorded at 0.1 s intervals for 10 s or 10 min. The maximum luminescence intensity (Imax), represented in relative luminescence units (rlu), was used in the study.
Targeting the DYRK1A/CDC37 complex
(a-d) Luminescence intensities of total cell lysates of cells treated with the indicated […]
Figure 4. Luminescence intensities at each concentration are shown as fold-changes relative to that at 0 nM. Points are means ± SD (n = 3).
(1 picture or pasted object on this page, not shown here)
Luminescence intensities of total cell lysates of cells treated with the indicated concentrations of CaNDY, as also used in Figure 5c. Luminescence intensities at each concentration are shown as fold-changes to that at 0 nM. Points are means ± SD (n = 3).

Test [22] has as its target T21, IRAK4 (Homo sapiens, UniProt Q9NWZ3).
T21 construct: purchased Carna Biosciences
As to the kind of experiment: Kinase panel, CaNDY 1 µM. In kind it is biochemical. The conditions noted are these: CaNDY 1 µM relative to DMSO.

T3 sequence (P49760 whole entry): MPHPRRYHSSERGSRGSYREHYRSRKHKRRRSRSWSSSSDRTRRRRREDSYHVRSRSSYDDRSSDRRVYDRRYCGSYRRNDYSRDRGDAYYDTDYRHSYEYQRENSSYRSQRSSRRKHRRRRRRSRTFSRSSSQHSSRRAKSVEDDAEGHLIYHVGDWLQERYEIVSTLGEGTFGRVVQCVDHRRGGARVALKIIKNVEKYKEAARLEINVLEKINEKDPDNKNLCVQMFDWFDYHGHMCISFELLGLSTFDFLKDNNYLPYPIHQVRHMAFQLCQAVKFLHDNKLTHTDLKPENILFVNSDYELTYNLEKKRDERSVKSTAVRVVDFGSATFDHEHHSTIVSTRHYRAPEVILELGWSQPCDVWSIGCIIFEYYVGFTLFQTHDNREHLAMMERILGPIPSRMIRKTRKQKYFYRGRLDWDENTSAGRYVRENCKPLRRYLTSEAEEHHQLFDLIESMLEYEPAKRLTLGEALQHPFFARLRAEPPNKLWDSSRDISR
T10 sequence (Q9Y6R4 whole entry): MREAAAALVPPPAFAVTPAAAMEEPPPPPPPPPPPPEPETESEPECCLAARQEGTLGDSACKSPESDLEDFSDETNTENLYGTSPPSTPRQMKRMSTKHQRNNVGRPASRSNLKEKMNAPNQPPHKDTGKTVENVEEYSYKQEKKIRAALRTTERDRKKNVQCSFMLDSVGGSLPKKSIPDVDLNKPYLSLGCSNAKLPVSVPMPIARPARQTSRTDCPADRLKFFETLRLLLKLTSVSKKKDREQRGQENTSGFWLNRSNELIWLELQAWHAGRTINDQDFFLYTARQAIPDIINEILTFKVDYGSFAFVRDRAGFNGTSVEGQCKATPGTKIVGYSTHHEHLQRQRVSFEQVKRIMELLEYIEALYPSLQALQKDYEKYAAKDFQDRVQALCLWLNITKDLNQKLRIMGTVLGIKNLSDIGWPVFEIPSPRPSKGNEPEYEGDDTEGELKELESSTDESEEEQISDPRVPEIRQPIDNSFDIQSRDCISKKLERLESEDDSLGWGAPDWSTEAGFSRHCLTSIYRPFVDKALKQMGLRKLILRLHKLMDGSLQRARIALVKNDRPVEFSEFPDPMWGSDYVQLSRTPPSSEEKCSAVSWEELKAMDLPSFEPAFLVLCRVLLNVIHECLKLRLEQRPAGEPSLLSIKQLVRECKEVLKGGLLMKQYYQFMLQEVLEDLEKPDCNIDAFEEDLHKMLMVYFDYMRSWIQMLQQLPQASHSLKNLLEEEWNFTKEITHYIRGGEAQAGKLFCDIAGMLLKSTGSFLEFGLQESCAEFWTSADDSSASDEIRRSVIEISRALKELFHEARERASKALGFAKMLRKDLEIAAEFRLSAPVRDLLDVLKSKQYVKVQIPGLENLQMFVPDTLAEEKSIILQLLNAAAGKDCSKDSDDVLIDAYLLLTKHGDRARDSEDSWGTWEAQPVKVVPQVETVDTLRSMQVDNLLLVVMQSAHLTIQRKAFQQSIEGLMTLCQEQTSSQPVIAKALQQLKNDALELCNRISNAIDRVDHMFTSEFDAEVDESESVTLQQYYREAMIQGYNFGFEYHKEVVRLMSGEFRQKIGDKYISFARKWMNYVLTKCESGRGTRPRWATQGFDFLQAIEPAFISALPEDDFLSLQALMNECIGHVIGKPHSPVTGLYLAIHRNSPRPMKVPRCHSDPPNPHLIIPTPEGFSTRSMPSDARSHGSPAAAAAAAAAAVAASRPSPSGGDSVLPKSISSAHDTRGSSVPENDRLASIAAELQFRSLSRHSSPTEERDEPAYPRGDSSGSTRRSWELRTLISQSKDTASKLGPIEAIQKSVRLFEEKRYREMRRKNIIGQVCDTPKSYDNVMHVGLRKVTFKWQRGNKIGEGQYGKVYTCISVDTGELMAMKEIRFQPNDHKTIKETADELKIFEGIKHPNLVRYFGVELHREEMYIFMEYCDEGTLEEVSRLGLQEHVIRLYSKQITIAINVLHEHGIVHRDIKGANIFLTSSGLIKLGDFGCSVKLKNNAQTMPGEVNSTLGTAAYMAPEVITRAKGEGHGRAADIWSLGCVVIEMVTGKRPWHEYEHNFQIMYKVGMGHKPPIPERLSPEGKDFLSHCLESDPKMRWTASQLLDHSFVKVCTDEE
T7 sequence (P42336 whole entry): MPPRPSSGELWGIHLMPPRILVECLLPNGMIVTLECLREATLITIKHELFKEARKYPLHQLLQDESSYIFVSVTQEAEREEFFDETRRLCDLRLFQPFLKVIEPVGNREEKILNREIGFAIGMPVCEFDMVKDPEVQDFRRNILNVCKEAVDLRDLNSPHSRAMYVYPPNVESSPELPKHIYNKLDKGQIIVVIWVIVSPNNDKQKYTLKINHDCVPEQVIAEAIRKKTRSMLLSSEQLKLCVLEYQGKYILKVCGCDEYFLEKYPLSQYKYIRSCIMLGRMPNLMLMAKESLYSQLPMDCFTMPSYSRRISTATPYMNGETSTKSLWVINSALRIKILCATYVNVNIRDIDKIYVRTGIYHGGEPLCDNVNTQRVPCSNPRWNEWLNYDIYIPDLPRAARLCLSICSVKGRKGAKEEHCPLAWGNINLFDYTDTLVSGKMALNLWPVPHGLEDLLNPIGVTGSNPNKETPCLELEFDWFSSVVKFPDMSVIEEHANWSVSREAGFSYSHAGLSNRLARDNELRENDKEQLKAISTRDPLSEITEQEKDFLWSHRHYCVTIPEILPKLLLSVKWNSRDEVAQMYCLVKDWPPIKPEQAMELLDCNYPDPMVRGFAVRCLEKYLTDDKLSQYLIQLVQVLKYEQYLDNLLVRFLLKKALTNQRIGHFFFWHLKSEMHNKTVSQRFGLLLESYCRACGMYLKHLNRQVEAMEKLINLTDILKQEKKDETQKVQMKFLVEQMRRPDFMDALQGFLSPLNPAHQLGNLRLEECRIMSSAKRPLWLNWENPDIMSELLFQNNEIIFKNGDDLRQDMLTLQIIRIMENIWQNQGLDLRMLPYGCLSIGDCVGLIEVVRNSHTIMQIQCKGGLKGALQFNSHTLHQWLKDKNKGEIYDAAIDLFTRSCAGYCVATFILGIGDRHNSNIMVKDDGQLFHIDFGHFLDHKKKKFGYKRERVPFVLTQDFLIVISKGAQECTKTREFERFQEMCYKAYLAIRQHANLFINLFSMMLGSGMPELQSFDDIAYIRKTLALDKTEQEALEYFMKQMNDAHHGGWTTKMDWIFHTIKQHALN
T7 sequence (P27986 whole entry partner): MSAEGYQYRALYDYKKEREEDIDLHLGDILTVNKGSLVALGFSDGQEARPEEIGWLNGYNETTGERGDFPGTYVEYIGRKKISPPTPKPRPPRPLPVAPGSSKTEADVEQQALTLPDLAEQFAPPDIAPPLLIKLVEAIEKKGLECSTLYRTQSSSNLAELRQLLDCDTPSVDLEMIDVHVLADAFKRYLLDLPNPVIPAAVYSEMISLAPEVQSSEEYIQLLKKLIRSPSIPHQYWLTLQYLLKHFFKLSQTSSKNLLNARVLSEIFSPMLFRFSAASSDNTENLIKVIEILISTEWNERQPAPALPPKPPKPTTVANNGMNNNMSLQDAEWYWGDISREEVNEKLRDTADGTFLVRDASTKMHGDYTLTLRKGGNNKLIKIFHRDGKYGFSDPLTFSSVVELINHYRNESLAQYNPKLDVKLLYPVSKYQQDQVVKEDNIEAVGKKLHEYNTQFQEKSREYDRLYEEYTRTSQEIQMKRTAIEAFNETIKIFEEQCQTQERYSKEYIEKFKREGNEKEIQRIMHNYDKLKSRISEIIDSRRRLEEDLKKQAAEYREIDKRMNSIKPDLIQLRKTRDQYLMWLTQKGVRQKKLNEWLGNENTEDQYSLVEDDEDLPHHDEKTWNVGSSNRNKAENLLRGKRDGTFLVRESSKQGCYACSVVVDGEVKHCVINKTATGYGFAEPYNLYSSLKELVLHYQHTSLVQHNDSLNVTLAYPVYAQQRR
T2 sequence (P80192 whole entry): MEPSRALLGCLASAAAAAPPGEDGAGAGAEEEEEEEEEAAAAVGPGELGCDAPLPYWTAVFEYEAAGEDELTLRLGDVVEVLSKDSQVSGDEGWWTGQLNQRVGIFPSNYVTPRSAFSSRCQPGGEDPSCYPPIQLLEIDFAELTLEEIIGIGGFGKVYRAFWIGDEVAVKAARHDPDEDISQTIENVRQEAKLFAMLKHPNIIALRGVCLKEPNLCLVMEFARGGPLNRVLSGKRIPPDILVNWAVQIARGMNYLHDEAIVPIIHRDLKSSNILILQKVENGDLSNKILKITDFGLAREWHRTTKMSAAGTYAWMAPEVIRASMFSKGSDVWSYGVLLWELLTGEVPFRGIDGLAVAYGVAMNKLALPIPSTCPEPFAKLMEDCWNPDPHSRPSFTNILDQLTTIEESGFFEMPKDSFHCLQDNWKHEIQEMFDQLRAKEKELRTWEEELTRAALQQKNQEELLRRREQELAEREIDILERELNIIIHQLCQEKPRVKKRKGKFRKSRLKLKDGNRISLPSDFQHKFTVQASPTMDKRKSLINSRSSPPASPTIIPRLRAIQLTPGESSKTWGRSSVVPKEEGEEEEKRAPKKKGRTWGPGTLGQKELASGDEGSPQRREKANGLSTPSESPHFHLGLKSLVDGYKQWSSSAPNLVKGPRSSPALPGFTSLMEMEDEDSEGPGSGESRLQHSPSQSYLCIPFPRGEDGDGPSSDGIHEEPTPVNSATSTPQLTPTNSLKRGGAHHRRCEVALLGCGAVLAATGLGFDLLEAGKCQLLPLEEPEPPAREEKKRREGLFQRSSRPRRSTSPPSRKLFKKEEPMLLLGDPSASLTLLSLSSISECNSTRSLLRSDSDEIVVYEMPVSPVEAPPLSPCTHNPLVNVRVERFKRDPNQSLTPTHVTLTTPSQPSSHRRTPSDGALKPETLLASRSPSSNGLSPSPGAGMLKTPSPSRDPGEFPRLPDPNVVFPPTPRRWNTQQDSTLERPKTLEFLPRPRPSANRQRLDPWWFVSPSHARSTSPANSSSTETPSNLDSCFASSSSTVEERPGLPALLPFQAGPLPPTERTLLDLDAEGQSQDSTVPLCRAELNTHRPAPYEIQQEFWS

On to `[H]/N=C1/NC(=O)C(=Cc2ccc3c(c2)CCO3)S1` [CaNDY, (Z)-5-[(2,3-dihydrobenzofuran-5-yl)methylene]-2-iminothiazolidin-4-one], for which, in test [1], the “protein expression of CK2α” value is given as “did not decrease”. In addition, the remaining activity (in general, the signal under treatment as a percentage of the control signal) at 1 µM in test [2] is 99.9%; in test [4] it was 92%; in [5], 90.6%; in test [6], 101%; in test [7], 38.5%; in test [8], 106%. Besides, the remaining activity at 1 µM in test [9] came to 102%; in [10], 101%; in test [11], 42.1%; in test [12], 99.5%; in test [13], 98.6%; in test [14], 98%. Moreover, the remaining activity at 1 µM in [15] is 90.3%; in test [16] it was 23.4%; in [18], 101%; in test [19], 103%. Further, in test [3] (1 μM CaNDY, read-out: percentage inhibition), the inhibition (usually the change of the read-out against control, counted positive when it falls) at 1 µM was more than 90%. Also, the figures for the “%Activity” value in [3] (CaNDY 1 µM relative to DMSO), in test [17] and in [22] were 9.0%, 96.9% and 100.8%, respectively. For the same compound, the Ki (usually the equilibrium dissociation constant of an inhibitor or competing ligand from its target) in test [20] (competitive inhibition model, 2.5–40 μM ATP) is 1.92 nM. Moreover, the mode of inhibition result in test [20] (double-reciprocal plots) is reported as “competed with ATP on a single site of DYRK1A”. The “inhibition of luminescence activity of CDC37-nanoKAZ” value in test [21] is on record as “did not inhibit”.

Values taken from paper PMC4522657, “Identification of a DYRK1A Inhibitor that Induces Degradation of the Target Kinase using Co-chaperone CDC37 fused with Luciferase nanoKAZ” (Scientific Reports, 2015).
